The source made the active and inactive calls. The calls are words filed in the database; no cut-off is given here.
Tests used:
HCT-116 [1] = assay: Induction of apoptosis in human HCT-116 cells assessed as late apoptotic cells at 200 nM measured after 24 hrs by Annexin V-FITC/PI staining based flow cytometry method (reference value: 3.55 %); assay type: functional
HCT-116 [2] = assay: Induction of apoptosis in human HCT-116 cells assessed as necrotic cells at 50 nM measured after 24 hrs by Annexin V-FITC/PI staining based flow cytometry method (reference value: 0.48 %); assay type: functional
[3] = molecular target: T1, Glutaminase kidney isoform, mitochondrial (Homo sapiens) (UniProt O94925); settings: HCT-116, filed as negative allosteric modulator, dose 100-300 nM, time 12.0 hrs
T1 sequence (whole entry): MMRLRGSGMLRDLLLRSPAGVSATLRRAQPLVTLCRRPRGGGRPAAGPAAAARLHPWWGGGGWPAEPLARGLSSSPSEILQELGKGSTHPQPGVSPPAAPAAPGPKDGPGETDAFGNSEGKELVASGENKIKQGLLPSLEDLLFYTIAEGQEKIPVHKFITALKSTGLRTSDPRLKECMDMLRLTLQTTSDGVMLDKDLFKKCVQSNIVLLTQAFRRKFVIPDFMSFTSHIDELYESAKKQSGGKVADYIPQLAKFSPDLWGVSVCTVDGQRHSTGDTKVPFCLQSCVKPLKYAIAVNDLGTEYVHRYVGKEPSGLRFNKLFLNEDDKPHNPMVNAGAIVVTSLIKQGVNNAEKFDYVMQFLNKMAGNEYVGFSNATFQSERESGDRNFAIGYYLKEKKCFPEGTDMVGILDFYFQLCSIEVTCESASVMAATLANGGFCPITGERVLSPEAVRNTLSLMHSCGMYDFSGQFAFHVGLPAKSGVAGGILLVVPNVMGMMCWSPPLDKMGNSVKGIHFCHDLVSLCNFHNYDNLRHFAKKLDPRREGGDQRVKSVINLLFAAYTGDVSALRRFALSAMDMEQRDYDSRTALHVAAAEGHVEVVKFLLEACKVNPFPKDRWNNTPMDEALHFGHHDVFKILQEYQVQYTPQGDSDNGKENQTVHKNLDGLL

[4] = AUC (0 to t) in Sprague-Dawley rat at 5 mg/kg, iv measured for 72 hrs by LC-MS/MS analysis; assay type: ADME, organism-based; parameters: dose 5 mg/kg, time 72 hrs, route iv; settings: in vivo
HCT-116 [5] = assay: Induction of apoptosis in human HCT-116 cells assessed as early apoptotic cells at 200 nM measured after 24 hrs by Annexin V-FITC/PI staining based flow cytometry method (reference value: 4.65 %); assay type: functional
[6] = Bioavailability in Sprague-Dawley rat at 10 mg/kg, ip measured for 72 hrs by LC-MS/MS analysis; assay type: ADME, organism-based; settings: in vivo
[7] = Toxicity in nude mouse xenografted with human HCT-116 cells assessed as heart damage by measuring edema and atrophy at 50 to 100 mg/kg, ip measured after 21 days by H and E staining based analysis; assay type: organism-based; settings: in vivo, 504 h, dose 50-100 mg/kg, time 21 day
[8] = Half life in Sprague-Dawley rat at 10 mg/kg, ip measured for 72 hrs by LC-MS/MS analysis; assay type: ADME, organism-based; settings: in vivo
[9] = MRT (0 to infinity) in Sprague-Dawley rat at 10 mg/kg, ip measured for 72 hrs by LC-MS/MS analysis; assay type: ADME, organism-based; settings: in vivo
HCT-116 [10] = assay: Induction of apoptosis in human HCT-116 cells assessed as early apoptotic cells at 30 nM measured after 24 hrs by Annexin V-FITC/PI staining based flow cytometry method (reference value: 4.65 %); assay type: functional
[11] = MRT (0 to infinity) in Sprague-Dawley rat at 5 mg/kg, iv measured for 72 hrs by LC-MS/MS analysis; assay type: ADME, organism-based; settings: in vivo
HCT-116 [12] = assay: Induction of apoptosis in human HCT-116 cells assessed as necrotic cells at 200 nM measured after 24 hrs by Annexin V-FITC/PI staining based flow cytometry method (reference value: 0.48 %); assay type: functional
HCT-116 [13] = assay: Antitumor activity against human HCT-116 cells xenografted in BALB/c SPF mouse assessed as tumor growth inhibition at 50 mg/kg, ip administered BID for 21 days; assay type: functional; settings: HCT-116, 504 h, time 21 day, read-out: TGI
[14] = Metabolic stability in human liver microsomes assessed as half life at 10 uM by LC-MS/MS analysis; assay type: ADME, Microsome; settings: liver microsomes
HCT-116 [15] = assay: Induction of apoptosis in human HCT-116 cells assessed as late apoptotic cells at 30 nM measured after 24 hrs by Annexin V-FITC/PI staining based flow cytometry method (reference value: 3.55 %); assay type: functional
CT26 = assay: Antiproliferative activity against mouse CT26 cells overexpressing GLS1 assessed as inhibition of cell proliferation measured after 72 hrs by MTT assay; assay type: functional, cell-based; settings: CT26, 72 h

## O=C(Cc1ccccc1)Nc1nnc(NC2CCN(c3nnc(NC(=O)c4nccn4Cc4ccc(C(F)(F)F)cc4)s3)CC2)s1
HCT-116 [1]
  Activity: 13.2%
HCT-116 [2]
  Activity: 0.01%
[3]
  inhibition: Active
[4]
  AUC(0-t) at 72 h: 6930 ng·h/mL
HCT-116 [5]
  Activity: 82.49%
[6]
  bioavailability: 20.9%
[7]
  Activity: Non-Toxic
[8]
  half-life: 8.92 h
[9]
  MRT inf: 13 h
HCT-116 [10]
  Activity: 13.6%
[11]
  MRT inf: 4.97 h
HCT-116 [12]
  Activity: 0.02%
HCT-116 [13]
  inhibition in vivo at 50 mg/kg: 35.5%
[14]
  half-life at 10 µM: 3.24 h
HCT-116 [15]
  Activity: 4.99%
CT26
  IC50: 320 nM

Reference: ChEMBL document CHEMBL5154870, “Discovery of novel glutaminase 1 allosteric inhibitor with 4-piperidinamine linker and aromatic heterocycles” (Eur J Med Chem, 2022)
